Measurements as given in patent US20220347130A1, “ANTI-OBESITY COMPOSITION CONTAINING COLCHICINE AND METFORMIN AS EFFECTIVE AGENTS” (priority 2021, published 2022).
Where two headings read alike, the source gives them in different places.

How the values were obtained:
[1] = format: in vivo, rats; conditions: oral once a day; for ALT / AST: HFD rats, 12 weeks, blood; for blood levels of AST and ALT (in words): HFD obesity-induced rats, colchicine 50, 100, 200 μg/kg and/or metformin 200 mg/kg, Table 1
Protocol: Finally, after the drugs were administered to the obesity-induced rats, changes in blood levels of aspartate aminotransferase (AST) and alanine transaminase (ALT) were measured and illustrated in Table 1 below.

[2] = HFD obesity-induced rats; colchicine 50, 100, 200 μg/kg and/or metformin 200 mg/kg, oral once a day; FIG. 1
Protocol: Low fat diet (LFD: containing 10 kcal % fat) or high fat diet (HFD: containing 60 kcal % fat) feed was taken autonomously for 12 weeks in 6-week-old C57BL/6J sp. male rats. The obesity-induced rats due to the intake of the HFD feed additionally took the HFD feed for 12 weeks and were administered with colchicine of 50, 100, and 200 μg/kg or metformin of 200 mg/kg alone or co-administered with the colchicine and the metformin. A control drug, Xenical (orlistat ingredient) was administered alone at 60 mg/kg. All drugs were orally administered once a day.
Changes in body weight of obesity-induced rats were measured according to single administration of colchicine or metformin and co-administration of colchicine and metformin, which were illustrated in FIG. 1.

[3] = test system: FAS (fatty acid synthase); assay: Expression of obesity-related gene FAS in epididymal fat of obesity-induced rats; format: in vivo; conditions: epididymal fat of HFD obesity-induced rats; colchicine 50, 100, 200 μg/kg and/or metformin 200 mg/kg, oral once a day; FIG. 4
Protocol: (§1) Meanwhile, after the drugs were administered to the obesity-induced rats, the expression of obesity-related genes SREBP-1c and FAS was measured, and the results thereof were illustrated in FIGS. 4A and 4B.

[4] = Epididymal fat weight of HFD obesity-induced rats; format: in vivo; conditions: for weight of epididymal fat: colchicine 50, 100, 200 μg/kg and/or metformin 200 mg/kg, oral once a day, FIG. 3; for effect of reducing the fat of the obesity-induced rats: summary of the results
Protocol: Next, after the drugs were administered to the obesity-induced rats, the weights of epididymal fat were measured and the results thereof was illustrated in FIG. 3.

SREBP-1c = assay: Expression of obesity-related gene SREBP-1c in epididymal fat of obesity-induced rats; format: in vivo; conditions: epididymal fat of HFD obesity-induced rats; colchicine 50, 100, 200 μg/kg and/or metformin 200 mg/kg, oral once a day; FIG. 4
Protocol: as §1

SMILES | ALT ([1]; orlistat 60 mg/kg) | AST ([1]; orlistat 60 mg/kg) | changes in body weight (increase in body weight induced by the HFD) [2] | expression of FAS [3] | blood levels of AST and ALT (in words) [1] | ALT ([1]; colchicine 50 μg/kg) | AST ([1]; colchicine 50 μg/kg) | ALT ([1]; colchicine 100 μg/kg) | AST ([1]; colchicine 100 μg/kg) | ALT ([1]; colchicine 200 μg/kg) | AST ([1]; colchicine 200 μg/kg) | weight of epididymal fat [4] | effect of reducing the fat of the obesity-induced rats [4] | expression of SREBP-1c (SREBP-1c) | ALT ([1]; metformin 200 mg/kg) | AST ([1]; metformin 200 mg/kg)
CCCCCCCCCCC[C@@H](C[C@@H]1OC(=O)[C@H]1CCCCCC)OC(=O)[C@H](CC(C)C)NC=O [Orlistat, orlistat] | 175.20 ± 3.11 U/L | 203.31 ± 3.72 U/L |  |  |  |  |  |  |  |  |  |  |  |  |  | 
COc1cc2c(c(OC)c1OC)-c1ccc(OC)c(=O)cc1[C@@H](NC(C)=O)CC2 [Colchicine, colchicine] |  |  | not changed | not changed | not changed | 175.08 ± 2.78 U/L | 372.26 ± 3.75 U/L | 164.5 ± 2.11 U/L | 346.91 ± 3.90 U/L | 157.38 ± 3.3 U/L | 309.24 ± 2.61 U/L | not changed | almost no effect | not changed |  | 
CN(C)C(=N)N=C(N)N [Metformin, metformin] |  |  | slightly reduced | slightly reduced | slightly reduced |  |  |  |  |  |  | slightly reduced | a slight effect | slightly reduced | 156.41 ± 2.77 U/L | 284.37 ± 2.78 U/L
